Test results published in patent publication US20110136229A1, “Novel lectin” (National Taiwan University, priority 2009, published 2011).
Values after ≈ are worked out from the molar mass of the structure shown.

Tests used:
CPL = test: Hemagglutination inhibition assay on CPL by various sugars (MIC); assay type: cell-based, Carica papaya; details: minimum inhibitory concentration for inhibition of 16 hemagglutination titers, 2% human erythrocytes
Procedure: The HA titer of the purified lectin in the present invention was 512. The purified lectin was diluted to have the HA titer as 16, and then mixed with various sugar solution to test hemagglutination inhibition on CPL by various sugars. The results were illustrated in Table 3, wherein MIC indicated minimum inhibitory concentrations required for inhibition of 16 hemagglutination titers of the lectin of the present invention against 2% human 0-type erythrocytes, and all sugars are of D configuration.

[1] = test system: CPL (Carica papaya lectin), purified lectin from papaya seeds; test: Interaction between CPL and immobilized GalNAc residues by surface plasmon resonance; assay type: binding; details: GalNAc-PAA-biotin polymers immobilized on SA chip, CPL 1.8-30 nM as analyte, Biacore T100
Procedure: (3) Interaction Between CPL and Immobilized GalNAc Residues by Surface Plasmon Resonance
GalNAc-PAA-biotin polymers were immobilized to a sensor chip modified with streptavidin (SA). The regeneration solution for the chip was 50 mM phosphate saline buffer (pH 7.0) containing 200 mM GalNAc. The concentrations of the purified CPL were adjusted to 30, 15, 7.5, 3.7 and 1.8 nM to be analytes, then subjected to the sensor chip immobilized with GalNAc-PAA-biotin polymers, and analyzed by Biacore T100 surface plasmon resonance analyzing machine. The obtained sensorgrams were analyzed and calculated by BIACORE T100 Evaluation software 2.0. After CPL was combined with GalNAc ligand on the sensor chip, the dissociation curve declined gradually. In other words, CPL had great affinity to GalNAc. […] (4) Immunomodulatory Effect of CPL on the Cytotoxicity and Induction of Cytokine Production in Jurkat T Lymphocytes

lectin of Carica papaya = test: Analysis of sugar-binding specificity (inhibition of lectin-induced hemagglutination by sugars, IC50); assay type: cell-based; details: lowest sugar concentration inhibiting 50% agglutinating activity; peak 1 diluted to HA titer 32
Procedure: The N-acetylgalactosamine, galactose, lactose, mannose, N-acetylglucosamine solutions were respectively added to the same volume of the samples, and the final sugar concentrations of the solutions were 3.1, 6.3, 12.5, 25, 50 and 100 mM, respectively. Upon well mixing, 50 μL of the mixture of the sample and the sugar solution was added to 50 μL of the human type O erythrocyte suspension (2×10^8 cells/mL) in the 96-well plate. Then, the 96-well plate was placed at 37 °C for 30 minutes, and the inhibition of the hemagglutination was observed. IC50 was defined as the lowest sugar concentration capable of inhibiting 50% agglutinating activity, wherein the inhibition area of the agglutination was at least half area of the bottom of the well.
In this embodiment, the fraction of the peak 1 (HA titer being 512) was diluted for 16 folds (HA titer being 32) for the analysis.

Jurkat T lymphocytes [2] = assay type: cell-based, human; details: 1 μg/mL, 24 hours
Procedure: […] After incubation for 24 hours, cell viability was measured by cell proliferation reagent, WST-1 (4-[3-(4-iodophenyl)-2-(4-nitrophenyl)-2H-5-tetrazolio]-1,3-benzene disulfonate), and the cytokine content in the incubation medium was analyzed. […] 24 μg/mL of CPL had inhibition effect on Jurkat T lymphocytes similar to that of 10 μg/mL of SBA, i.e., inhibiting 30% of viability after 24-hour incubation.

Jurkat T lymphocytes [3] = test: IL-2 cytokine production in Jurkat T lymphocytes; assay type: cell-based, human; details: 10 μg/mL, 24 hr
Procedure: The purified CPL was added to respective 1.8 mL of Jurkat T lymphocytes (2×10^6), wherein the final concentrations of CPL were 24, 12, 6 and 3 μg/mL, respectively. After incubation for 24 hours, cell viability was measured by cell proliferation reagent, WST-1 (4-[3-(4-iodophenyl)-2-(4-nitrophenyl)-2H-5-tetrazolio]-1,3-benzene disulfonate), and the cytokine content in the incubation medium was analyzed. […] 24 μg/mL of CPL had inhibition effect on Jurkat T lymphocytes similar to that of 10 μg/mL of SBA, i.e., inhibiting 30% of viability after 24-hour incubation.
In the control group of Jurkat T lymphocyte without lectin added therein, the concentration of IL-2 upon 24 hr incubation was approximately or lower than 10 pg/mL. However, upon incubation with lectin, Jurkat T lymphocytes were induced to secrete IL-2 into the culture medium. The concentrations of IL-2 secreted from Jurkat T lymphocytes incubated with SBA and PHA (10 μg/mL) were 377±1 and 308±7 pg/mL, respectively. After Jurkat T lymphocytes were incubated with various concentrations of CPL for 24 hours, the concentration of IL-2 in the medium was proportional to the concentration of CPL. In the medium added with 3 μg/mL of CPL, the concentration of IL-2 was 9.7 pg/mL, which had no significant difference from the control group. In the medium added with 6 μg/mL of CPL, the concentration of IL-2 was 44.5 pg/mL. […]

Compound	MIC (CPL)	IC50 (lectin of Carica papaya)	further results
CC(=O)N[C@H]1C(O)O[C@H](CO)[C@H](O)[C@@H]1O (stereo partly shown) [N-acetylgalactosamine]	6.3 mM (≈ 1.39 mg/mL)	6.3 mM	combination rate (Kon) [1]: 5.5×10^4 1/MS; dissociation rate (Koff) [1]: 3×10^−4 1/S; Kd ([1]; read-out: dissociation constant (Kd)): ~5.5 nM
CC(=O)N[C@H]1C(O)O[C@H](CO)[C@@H](O)[C@@H]1O (stereo partly shown) [N-acetylglucosamine]		> 100 mM	MIC (CPL; listed as GlcNAc): >100 mM
OC[C@H]1O[C@@H](O[C@H]2[C@H](O)[C@@H](O)C(O)O[C@@H]2CO)[C@H](O)[C@@H](O)[C@H]1O (stereo partly shown) [Lactose]	6.3 mM (≈ 2.16 mg/mL)	6.3 mM	
SBA: soybean agglutinin, which specifically binds to GalNAc			effect on viability (Jurkat T lymphocytes [2]): no significant effect; concentration of IL-2 in medium (Jurkat T lymphocytes [3]): 377 ± 1 pg/mL
O=C[C@H](O)[C@@H](O)[C@@H](O)[C@H](O)CO [Galactose]	>100 mM	> 100 mM	
